# Test results reported in patent US5010058A, “3,5,6-substituted derivatives of 1,2-O-isopropylidene-α,D-glucofuranose and intermediates for preparing these derivatives” (501 Greenwich Pharmaceuticals Incorporated, priority 1989, dated 1991).
# Read-outs that look alike come from different tables or passages of the source.
# Tests used:
# [1] = system: leukotriene B4 (LTB4) secretion by BUD-8 skin cell fibroblasts; test: Secretion of LTB4 by BUD-8 skin cell fibroblasts (radioimmunoassay); assay type: cell-based, human; conditions: for LTB4 in supernatant of BUD-8 skin cells: triplicate ± SD
# Description: Levels of LTB4 in aliquots of BUD-8 skin cell cultures supernatants were quantified by radioimmunoassay. The cells were first plated in triplicate at a density of 1×10^4 cells/0.1 ml/microtiter well for the assay to quantitate LTB4. To these cells was added 0.1 ml incubation medium containing compound 80182, or nordihydroguaiaretic acid (NDGA) to inhibit leukotriene production. After 18 hours of culture, samples of the BUD-8 skin cell supernatants were collected from one set of microtiter plates and frozen until assayed for LTB4 content using a radioimmunoassay. Into a polypropylene tube were mixed 0.1 ml anti-LTB4, 0.1 ml^3 H-LTB4 and 0.1 ml LTB4 standard or LTB4 containing sample. The BUD-8 skin cell culture supernatants were used directly in the radioimmunoassay. The tubes were refrigerated overnight. A charcoal solution (0.5 ml of 0.5% charcoal Norit A) was added and each tube was centrifuged. The radio activity in the supernatant was then counted in a liquid scintillation counter. | ^a Experimental compounds were first suspended in DMSO or ethanol, | ^b The effect of experimental compounds on the amount of LTB4 in […]
# [2] = system: normal spleen cells / splenic T-lymphocytes (Con-A stimulated); test: Con-A blastogenic response of normal spleen cells (3H-thymidine incorporation); assay type: cell-based, mouse (C57Bl/6); conditions: for Blastogenic response of normal spleen cells to Con-A: triplicates ± SD; for inhibition at 1 µg/mL / inhibition at 10 µg/mL / inhibition at 25 µg/mL / inhibition at 100 µg/mL / inhibition at 300 µg/mL / inhibition at 750 µg/mL: Mus musculus, T-lymphocyte, 72 h, percent change from no compound, read-out: Blastogenic response of normal spleen cells to Con-A, % effect
# Description: A simple method is used to screen compounds for their ability to modulate T-lymphocyte activity which comprises assessing the capacity of the compounds to alter the activation of murine spleen cells in response to T-lymphocyte mitogen activators, such as concanavalin-A (Con-A). The method used to measure the effects of the compounds of the present invention on the blastogenic response of spleen cells to the T-lymphocyte mitogen, (i.e., Con-A), is as follows.
# Spleen cells were removed from normal C57Bl/6 mice and homogenized to obtain a single cell suspension. Erythrocytes were lysed by hypotonic shock. Upon determination of the viability and concentration of the remaining lymphoid cells, they were adjusted to a concentration of 4×10^6 /ml. These spleen cells (2×10^5 cells per […]) were seeded into wells of microtiter plates with the compounds of the present invention having the following dose concentrations:
# Con-A was also added to these cultures at a final concentration of […]. These cells were cultured for 3 days at 37° C. in a humidified atmosphere of 5% CO2 in air. For the last 18 hours of culture, […] H-thymidine was added to each well. The cells were then precipitated by a multichannel harvester. The amount of ^3 H-thymidine incorporated by the cultured cells were measured in a liquid scintillation counter (Disintegrations per min., DPM). All assays were conducted in triplicate.
# The incubation medium used for the blastogenesis assays was RPMI-1640 medium containing 10% fetal bovine serum, […] streptomycin, 100 U/ml penicillin, […] Hepes buffer solution, 5×10^-5 M 2-mercaptoethanol and 2 mM glutamine.
# (§1) ^a Experimental compounds were first suspended in DMSO or ethanol,
# ^b The effect of experimental compounds on the blastogenic response o
# [3] = system: BUD-8 skin cell fibroblasts; test: Proliferation of BUD-8 skin cell fibroblasts (3H-thymidine uptake); assay type: cell-based, human; conditions: for 3H-Thymidine uptake by BUD-8 skin cells: triplicates ± SD
# Description: The human skin cell fibroblast line, BUD-8, was originally derived from the normal skin of a person and can now be obtained from the American Type Culture Collection.
# The number of BUD-8 cells was expanded for use by culture in 25 cm^2 flasks at 37° C. in an atmosphere of 5% CO2 in air. At approximately 4-5 five day intervals, or when confluence was reached, the cells were passaged. This was accomplished by detaching the cells with a Teflon scraper, washing and reseeding the cells at a lower density into fresh tissue culture flasks.
# The effect of these compound on the proliferative capacity of human BUD-8 skin fibroblasts was measured with the use of a ^3 H-thymidine incorporation assay using culture conditions which were similar to those used for the Con-A blastogenesis assay, described previously. Cultured skin cells were detached from the surface of tissue culture flasks mechanically with a Teflon scraper. The cells were washed, resuspended in incubation medium and the viabilities were determined. These cells were then plated in triplicate at a density of 2×10^3 cells/0.1 ml/microtiter well for the proliferation assays. […] Eighteen hours later, each of the BUD-8 cultures was examined morphologically for evidence of compound-induced toxicity such as cell rounding or granularity. The thymidine-pulsed cells were then precipitated and the amount of ^3 H-thymidine incorporation was counted in a liquid scintillation counter. […]
# as §1
# ^b The effect of experimental compounds on the proliferation of BUD8
# [4] = Con-A 1 ug/ml, compound 1 ug/ml
# [5] = Con-A 1 ug/ml, compound 10 ug/ml
# [6] = Con-A 1 ug/ml, compound 25 ug/ml
# [7] = Con-A 1 ug/ml, compound 100 ug/ml
# [8] = Con-A 1 ug/ml, compound 300 ug/ml
# [9] = Con-A 1 ug/ml, compound 750 ug/ml
# [10] = Con-A 4 ug/ml, compound 1 ug/ml
# [11] = Con-A 4 ug/ml, compound 10 ug/ml
# [12] = Con-A 4 ug/ml, compound 25 ug/ml
# [13] = Con-A 4 ug/ml, compound 100 ug/ml
# [14] = Con-A 4 ug/ml, compound 300 ug/ml
# [15] = Con-A 4 ug/ml, compound 750 ug/ml
compound,measurement,setting,value
"CCCCCCCCCCCNCC(O)C1OC2OC(C)(C)OC2C1O [Ex. 2, 1,2-O-Isopropylidene-6-deoxy-6-aminoundecyl-α, D-glucofuranose]",effect on LTB4 secretion / activity,[1],produced an effect upon the secretion of leukotriene B4
same,inhibition at 1 µg/mL,"[1]; Homo sapiens, Fibroblast, 18 h, compound 1 ug/ml, percent change from no compound, read-out: LTB4 secretion, % Effect",-15%
same,inhibition at 10 µg/mL,"[1]; Homo sapiens, Fibroblast, 18 h, compound 10 ug/ml, percent change from no compound, read-out: LTB4 secretion, % Effect",37%
same,inhibition at 25 µg/mL,"[1]; Homo sapiens, Fibroblast, 18 h, compound 25 ug/ml, percent change from no compound, read-out: LTB4 secretion, % Effect",58%
same,inhibition at 100 µg/mL,"[1]; Homo sapiens, Fibroblast, 18 h, compound 100 ug/ml, percent change from no compound, read-out: LTB4 secretion, % Effect",22%
same,inhibition at 300 µg/mL,"[1]; Homo sapiens, Fibroblast, 18 h, compound 300 ug/ml, percent change from no compound, read-out: LTB4 secretion, % Effect",60%
same,inhibition at 750 µg/mL,"[1]; Homo sapiens, Fibroblast, 18 h, compound 750 ug/ml, percent change from no compound, read-out: LTB4 secretion, % Effect",42%
same,calculated LTB4 secreted/10^5 BUD-8 cells,[1]; compound 1 ug/ml,862 pg LTB4 per 10^5 cells
same,LTB4 in supernatant of BUD-8 skin cells,[1]; compound 1 ug/ml,44.4 ± 3.8 pg LTB4 /100 ul supernatant
same,calculated LTB4 secreted/10^5 BUD-8 cells,[1]; compound 10 ug/ml,485 pg LTB4 per 10^5 cells
same,LTB4 in supernatant of BUD-8 skin cells,[1]; compound 10 ug/ml,24.6 ± 5.3 pg LTB4 /100 ul supernatant
same,calculated LTB4 secreted/10^5 BUD-8 cells,[1]; compound 25 ug/ml,303 pg LTB4 per 10^5 cells
same,LTB4 in supernatant of BUD-8 skin cells,[1]; compound 25 ug/ml,16.4 ± 2.0 pg LTB4 /100 ul supernatant
same,calculated LTB4 secreted/10^5 BUD-8 cells,[1]; compound 100 ug/ml,575 pg LTB4 per 10^5 cells
same,LTB4 in supernatant of BUD-8 skin cells,[1]; compound 100 ug/ml,30.1 ± 3.9 pg LTB4 /100 ul supernatant
same,calculated LTB4 secreted/10^5 BUD-8 cells,[1]; compound 300 ug/ml,281 pg LTB4 per 10^5 cells
same,LTB4 in supernatant of BUD-8 skin cells,[1]; compound 300 ug/ml,15.3 ± 1.1 pg LTB4 /100 ul supernatant
same,calculated LTB4 secreted/10^5 BUD-8 cells,[1]; compound 750 ug/ml,422 pg LTB4 per 10^5 cells
same,LTB4 in supernatant of BUD-8 skin cells,[1]; compound 750 ug/ml,22.4 ± 4.2 pg LTB4 /100 ul supernatant
same,Blastogenic response of normal spleen cells to Con-A,[2]; [4],"13,581 ± 4,804 cpm"
same,Blastogenic response of normal spleen cells to Con-A,[2]; [5],"5,014 ± 89 cpm"
same,Blastogenic response of normal spleen cells to Con-A,[2]; [6],"3,312 ± 1,541 cpm"
same,Blastogenic response of normal spleen cells to Con-A,[2]; [7],"2,967 ± 964 cpm"
same,Blastogenic response of normal spleen cells to Con-A,[2]; [8],"2,934 ± 299 cpm"
same,Blastogenic response of normal spleen cells to Con-A,[2]; [9],"2,020 ± 651 cpm"
same,Blastogenic response of normal spleen cells to Con-A,[2]; [10],"18,607 ± 8,159 cpm"
same,Blastogenic response of normal spleen cells to Con-A,[2]; [11],"4,293 ± 3,517 cpm"
same,Blastogenic response of normal spleen cells to Con-A,[2]; [12],"1,635 ± 635 cpm"
same,Blastogenic response of normal spleen cells to Con-A,[2]; [13],"2,618 ± 444 cpm"
same,Blastogenic response of normal spleen cells to Con-A,[2]; [14],"2,787 ± 413 cpm"
same,Blastogenic response of normal spleen cells to Con-A,[2]; [15],"1,575 ± 480 cpm"
same,inhibition at 1 µg/mL,[2]; [4],81%
same,inhibition at 10 µg/mL,[2]; [5],93%
same,inhibition at 25 µg/mL,[2]; [6],95%
same,inhibition at 100 µg/mL,[2]; [7],96%
same,inhibition at 300 µg/mL,[2]; [8],96%
same,inhibition at 750 µg/mL,[2]; [9],97%
same,inhibition at 1 µg/mL,[2]; [10],81%
same,inhibition at 10 µg/mL,[2]; [11],96%
same,inhibition at 25 µg/mL,[2]; [12],98%
same,inhibition at 100 µg/mL,[2]; [13],97%
same,inhibition at 300 µg/mL,[2]; [14],97%
same,inhibition at 750 µg/mL,[2]; [15],98%
same,anti-proliferative effect on skin cells,[3],anti-proliferative effect that was statistically significant
same,inhibition at 1 µg/mL,"[3]; Homo sapiens, Fibroblast, compound 1 ug/ml, percent change from no compound, read-out: 3H-Thymidine uptake by BUD-8 skin cells, % effect",1%
same,inhibition at 10 µg/mL,"[3]; Homo sapiens, Fibroblast, compound 10 ug/ml, percent change from no compound, read-out: 3H-Thymidine uptake by BUD-8 skin cells, % effect",46%
same,inhibition at 25 µg/mL,"[3]; Homo sapiens, Fibroblast, compound 25 ug/ml, percent change from no compound, read-out: 3H-Thymidine uptake by BUD-8 skin cells, % effect",77%
same,inhibition at 100 µg/mL,"[3]; Homo sapiens, Fibroblast, compound 100 ug/ml, percent change from no compound, read-out: 3H-Thymidine uptake by BUD-8 skin cells, % effect",89%
same,inhibition at 300 µg/mL,"[3]; Homo sapiens, Fibroblast, compound 300 ug/ml, percent change from no compound, read-out: 3H-Thymidine uptake by BUD-8 skin cells, % effect",90%
same,inhibition at 750 µg/mL,"[3]; Homo sapiens, Fibroblast, compound 750 ug/ml, percent change from no compound, read-out: 3H-Thymidine uptake by BUD-8 skin cells, % effect",85%
same,3H-Thymidine uptake by BUD-8 skin cells,[3]; compound 1 ug/ml,"6,069 ± 636 cpm"
same,3H-Thymidine uptake by BUD-8 skin cells,[3]; compound 10 ug/ml,"3,363 ± 227 cpm"
same,3H-Thymidine uptake by BUD-8 skin cells,[3]; compound 25 ug/ml,"1,430 ± 1,176 cpm"
same,3H-Thymidine uptake by BUD-8 skin cells,[3]; compound 100 ug/ml,649 ± 114 cpm
same,3H-Thymidine uptake by BUD-8 skin cells,[3]; compound 300 ug/ml,595 ± 110 cpm
same,3H-Thymidine uptake by BUD-8 skin cells,[3]; compound 750 ug/ml,911 ± 863 cpm
